pIC50: −log10 of the molar value. Where two headings read alike, the source gives them in different places.
Experiments:
[1] = tested on: HeLa; test: MTS proliferation assay, HeLa; format: cell-based, human; conditions: 72 h incubation, read-out: MTS proliferation assay IC 50 HeLa
Outline: (§1)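 Absorbance at 492 nm after 3 h with MTS reagent gave proliferation. This followed 72 h compound exposure (final 0.3, 1, 3, 10 μM) at 37 °C and 7.5% CO2. Cells had been plated 24 h earlier in complete RPMI-1640 with 5% or 10% FCS.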

[2] = tested on: MRC5; test: MTS proliferation assay, MRC5; format: cell-based; conditions: MRC5, 72 h incubation, read-out: MTS proliferation assay IC 50 MRC5
Outline: (§2)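 Antiproliferative read-out by MTS (3 h, A492) after 72 h compound exposure at final 0.3–10 μM (four concentrations). Cells were plated 24 h earlier in RPMI-1640 containing 5% or 10% FCS, cultured at 37 °C with 7.5% CO2.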

[3] = tested on: HT1080; test: MTS proliferation assay, HT1080; format: cell-based, human; conditions: HT1080, 72 h incubation, read-out: MTS proliferation assay IC 50 HT1080
Outline: as §1

[4] = tested on: Jily; test: MTS proliferation assay, Jily; format: cell-based; conditions: 72 h incubation, read-out: MTS proliferation assay IC 50 Jily
Outline: as §2

[5] = tested on: adherent cells or suspension cells; test: Hoechst 33342 nuclear staining (fraction of apoptotic nuclei); format: cell-based; design: key: 0 relating to no activity; 1 relating to weak activity comprising less than 70% of the cells; score 2 relating to strong activity comprising more than 70% of the cells
[6] = tested on: Jurkat; test: MTS proliferation assay, Jurkat; format: cell-based, human; conditions: 72 h incubation, read-out: MTS proliferation assay IC 50 Jurkat
Outline: as §1

SMILES: CC(=O)Nc1ccc(C(=O)Cn2c(-c3nonc3N)nc3ccccc32)cc1 [Example 60]
- pIC50 [1]: 6.00 to 7.00
- pIC50 [2]: 6.00 to 7.00
- pIC50 [3]: 6.00 to 7.00
- pIC50 [4]: 6.00 to 7.00
- Hoechst 33342 nuclear staining score ([5]; H460, conc 0.01 μm): 0
- Hoechst 33342 nuclear staining score ([5]; H460, conc 0.1 μm): 0
- Hoechst 33342 nuclear staining score ([5]; H460, conc 1 μm): 0
- Hoechst 33342 nuclear staining score ([5]; HeLa, conc 0.01 μm): 0
- Hoechst 33342 nuclear staining score ([5]; HeLa, conc 0.1 μm): 0
- Hoechst 33342 nuclear staining score ([5]; HeLa, conc 1 μm): 1 (1 relating to weak activity comprising less than 70% of the cells)
- Hoechst 33342 nuclear staining score ([5]; Jily, conc 0.01 μm): 0
- Hoechst 33342 nuclear staining score ([5]; Jily, conc 0.1 μm): 0
- Hoechst 33342 nuclear staining score ([5]; Jily, conc 1 μm): 2 (score 2 relating to strong activity comprising more than 70% of the cells)
- Hoechst 33342 nuclear staining score ([5]; Jurkat, conc 0.01 μm): 0
- Hoechst 33342 nuclear staining score ([5]; Jurkat, conc 0.1 μm): 0
- Hoechst 33342 nuclear staining score ([5]; Jurkat, conc 1 μm): 2 (score 2 relating to strong activity comprising more than 70% of the cells)
- Hoechst 33342 nuclear staining score ([5]; MRC5, conc 0.01 μm): 0
- Hoechst 33342 nuclear staining score ([5]; MRC5, conc 0.1 μm): 0
- Hoechst 33342 nuclear staining score ([5]; MRC5, conc 1 μm): 2 (score 2 relating to strong activity comprising more than 70% of the cells)
- Hoechst 33342 nuclear staining score ([5]; PBLs, conc 0.01 μm): 0
- Hoechst 33342 nuclear staining score ([5]; PBLs, conc 0.1 μm): 0
- Hoechst 33342 nuclear staining score ([5]; PBLs, conc 1 μm): 0
- pIC50 [6]: 6.00 to 7.00

SMILES: Nc1cc(C(=O)Cn2c(-c3nonc3N)nc3ccccc32)ccc1Cl [Example 14, 4-[1-(3-Amino-4-chlorophenacyl)-1H-benzimidazol-2-yl]-furazan-3-ylamine]
- pIC50 ([1]; Homo sapiens): 7.00 to 8.00
- pIC50 ([2]; Homo sapiens): 7.00 to 8.00
- pIC50 ([3]; Homo sapiens, HT-1080): 7.00 to 8.00
- pIC50 [4]: 7.00 to 8.00
- Hoechst 33342 nuclear staining score ([5]; H460, conc 0.01 μm): 0
- Hoechst 33342 nuclear staining score ([5]; H460, conc 0.1 μm): 2 (score 2 relating to strong activity comprising more than 70% of the cells)
- Hoechst 33342 nuclear staining score ([5]; H460, conc 1 μm): 2 (score 2 relating to strong activity comprising more than 70% of the cells)
- Hoechst 33342 nuclear staining score ([5]; HeLa, conc 0.01 μm): 0
- Hoechst 33342 nuclear staining score ([5]; HeLa, conc 0.1 μm): 1 (1 relating to weak activity comprising less than 70% of the cells)
- Hoechst 33342 nuclear staining score ([5]; HeLa, conc 1 μm): 2 (score 2 relating to strong activity comprising more than 70% of the cells)
- Hoechst 33342 nuclear staining score ([5]; Jily, conc 0.01 μm): 0
- Hoechst 33342 nuclear staining score ([5]; Jily, conc 0.1 μm): 2 (score 2 relating to strong activity comprising more than 70% of the cells)
- Hoechst 33342 nuclear staining score ([5]; Jily, conc 1 μm): 2 (score 2 relating to strong activity comprising more than 70% of the cells)
- Hoechst 33342 nuclear staining score ([5]; Jurkat, conc 0.01 μm): 0
- Hoechst 33342 nuclear staining score ([5]; Jurkat, conc 0.1 μm): 2 (score 2 relating to strong activity comprising more than 70% of the cells)
- Hoechst 33342 nuclear staining score ([5]; Jurkat, conc 1 μm): 2 (score 2 relating to strong activity comprising more than 70% of the cells)
- Hoechst 33342 nuclear staining score ([5]; MRC5, conc 0.01 μm): 0
- Hoechst 33342 nuclear staining score ([5]; MRC5, conc 0.1 μm): 1 (1 relating to weak activity comprising less than 70% of the cells)
- Hoechst 33342 nuclear staining score ([5]; MRC5, conc 1 μm): 2 (score 2 relating to strong activity comprising more than 70% of the cells)
- Hoechst 33342 nuclear staining score ([5]; PBLs, conc 0.01 μm): 0
- Hoechst 33342 nuclear staining score ([5]; PBLs, conc 0.1 μm): 0
- Hoechst 33342 nuclear staining score ([5]; PBLs, conc 1 μm): 0
- pIC50 ([6]; Homo sapiens): 7.00 to 8.00

SMILES: N#CCCNc1nonc1-c1nc2ccccc2n1COc1ccccc1 [Example 95]
- pIC50 [1]: 6.00 to 7.00
- pIC50 [2]: 6.00 to 7.00
- pIC50 [3]: 6.00 to 7.00
- pIC50 [4]: 6.00 to 7.00
- Hoechst 33342 nuclear staining score ([5]; HeLa, conc 0.01 μm): 0
- Hoechst 33342 nuclear staining score ([5]; HeLa, conc 0.1 μm): 0
- Hoechst 33342 nuclear staining score ([5]; HeLa, conc 1 μm): 1 (1 relating to weak activity comprising less than 70% of the cells)
- Hoechst 33342 nuclear staining score ([5]; Jily, conc 0.01 μm): 0
- Hoechst 33342 nuclear staining score ([5]; Jily, conc 0.1 μm): 0
- Hoechst 33342 nuclear staining score ([5]; Jily, conc 1 μm): 1 (1 relating to weak activity comprising less than 70% of the cells)
- Hoechst 33342 nuclear staining score ([5]; Jurkat, conc 0.01 μm): 0
- Hoechst 33342 nuclear staining score ([5]; Jurkat, conc 0.1 μm): 0
- Hoechst 33342 nuclear staining score ([5]; Jurkat, conc 1 μm): 2 (score 2 relating to strong activity comprising more than 70% of the cells)
- Hoechst 33342 nuclear staining score ([5]; MRC5, conc 0.01 μm): 0
- Hoechst 33342 nuclear staining score ([5]; MRC5, conc 0.1 μm): 0
- Hoechst 33342 nuclear staining score ([5]; MRC5, conc 1 μm): 0
- Hoechst 33342 nuclear staining score ([5]; PBLs, conc 0.01 μm): 0
- Hoechst 33342 nuclear staining score ([5]; PBLs, conc 0.1 μm): 0
- Hoechst 33342 nuclear staining score ([5]; PBLs, conc 1 μm): 0
- pIC50 [6]: 6.00 to 7.00

From patent publication USRE42890E1, “Furazanobenzimidazoles” (Basilea Pharmaceutica AG, priority 2003, dated 2011)
